Source: patent EP0989125B1, “Pesticidal furylmethyl cyclopropanecarboxylates” (Sumitomo Chemical Company, Limited, priority 1998, dated 2000)

Tests used:
[1] = test system: German cockroaches (Blattella germanica); assay: Biological test 5: treated filter paper with sucrose bait, cockroaches low sensitive to pyrethroids; conditions: 500 ppm aqueous emulsion, male cockroaches low sensitive to pyrethroids, after six days; 8640 min
[2] = test system: webbing clothes moth (Tineola bisselliella); assay: Biological test 14: persistence of treated filter paper in cardboard box, webbing clothes moth larvae; assay type: in vivo; parameters: key to degree of damage: -: no damage; +: slight damage; ++: heavy damage; +++: severe damage; conditions: 36 mg on filter paper
Procedure: A filter paper (3.2 cm × 3.2 cm in size) treated with 36 mg of each of the present compounds and two wool muslin fabrics (25 cm × 25 cm in size) were hung down at the upper part of a corrugated cardboard box (29 cm × 29 cm × 29 cm in size). After standing at 25 °C and a humidity of 60 % for 1 week, two tea-strainer balls holding 7 to 10 middle instar larvae of webbing clothes moth (Tineola bisselliella) and one piece of wool muslin cloth (2 cm × 2 cm in size) were hung down at the upper part of the box. The box was closed with a lid. After one week, the box was opened, and the percent moribund and the degree of damage of the wool muslin cloth by the moths were examined. The same tests was repeated 2 weeks, 3 weeks and 5 weeks after the treatment to examine the persistance of the present compound. The degree of damage was represented by "-" in no damage, " + " in slight damage, " ++ " in heavy damage and "+++ " in severe damage.

[3] = test system: houseflies (Musca domestica); assay: Biological test 4: treated filter paper with sucrose bait, houseflies low sensitive to pyrethroids; conditions: 500 ppm aqueous emulsion, female houseflies low sensitive to pyrethroids, after one day; 1440 min
[4] = test system: houseflies (Musca domestica); assay: Biological test 9: topical application of acetone solution to houseflies; assay type: in vivo; conditions: 5 µg / one housefly, after 24 hours
Procedure: After 24 hours, the percent moribund was examined (two replicate).

[5] = test system: brown planthopper (Nilaparvata lugens); assay: Biological test 2: rice plant stalk dipped in emulsion; assay type: in vivo; conditions: 500 ppm aqueous emulsion, larvae, after 6 days
Procedure: A stalk of a rice plant was dipped for one minute in a 500 ppm aqueous emulsion obtained by diluting each emulsifiable concentrate of the present compounds prepared according to the formulation example 1. The rice plant stalk was air-dried and placed in a polyethylene cup (diameter : 5.5 cm) where filter paper (diameter : 5.5 cm) impregnated with 1 ml of water was put. Approximately 30 larvae of brown planthopper (Nilaparvata lugens) were put in the polyethylene cup. After 6 days, the mortality of the larvae was examined.

[6] = test system: southern corn rootworm (Diabrotica undecimpunctata howardi); assay: Biological test 3: treated filter paper with eggs and sprouting corn; conditions: 50 ppm aqueous emulsion, after 8 days
[7] = test system: houseflies (Musca domestica); assay: Biological test 10: vapour exposure over treated aluminum plate, houseflies; assay type: in vivo; conditions: 0.64 ml of 0.05 (w/v) % acetone solution, no direct contact, 25 °C for 120 minutes, after 24 hours
Procedure: (§1) After 0.64 ml of a 0.05 (w/v) % acetone solution of the present compounds was dropped into an aluminum plate (bottom diameter : 7 cm), acetone was air-dried. Ten female houseflies (Musca domestica) were left in a polyethylene cup (diameter : 9 cm; depth : 4.5 cm) and the cup was sealed with a 16-mesh nylon net to prevent direct contact of the houseflies with the compound. The cup was placed upside down on the aluminum plate at 25 °C for 120 minutes. The cup was then removed from the aluminum plate, and water and feed were given to the houseflies. After 24 hours, the percent moribund was examined (two replicate).

[8] = test system: common mosquitoes (Culex pipiens pallens); assay: Biological test 8: mosquito-coil in glass chamber, knock-down; assay type: in vivo; conditions: 1.0 g of 0.3 % mosquito-coil, 0.34 m^3 chamber, after 15 minutes
Procedure: Mosquito-coil containing the present compound in an amount of 0.3 % was prepared according to the formulation example 10 for the present compounds. Ten female common mosquitoes (Culex pipiens pallens) were left in a glass chamber (70 cm × 70 cm × 70 cm : 0.34 m^3) and 1.0 g of 0.3 % mosquito-coil having both ends lit was placed in the glass chamber. After 15 minutes, the rate of knocked-down mosquitoes was examined.

[9] = test system: common mosquitoes (Culex pipiens pallens); assay: Biological test 6: mosquito larvae in treated water; assay type: in vivo; conditions: 3.5 ppm active ingredient in water, last-instar larvae, after one day; 1440 min
Procedure: 0.7 ml of aqueous emulsion, obtained by diluting emulsifiable concentrate prepared for each of the present compounds according to the formulation example 1 was added to 100 ml of ion-exchanged water (concentration of active ingredient : 3.5 ppm). Twenty last-instar larvae of common mosquitoes (Culex pipiens pallens) were left in the water. After one day, the mortality of the common mosquitoes was examined.

[10] = test system: webbing clothes moth (Tineola bisselliella); assay: Biological test 12: topical application to webbing clothes moth larvae; assay type: in vivo; conditions: 3 µg / insect, after 7 days
Procedure: Each of the present compounds diluted with acetone to a predetermined concentration was applied to ten middle instar larvae of webbing clothes moth (Tineola bisselliella) at the central part of the back so as to give the active ingredient in a dose of 3 µg / insect. A wool muslin fabric (2 cm × 2 cm in size) was given to the webbing clothes moths as the food. After 7 days, the mortality and the degree of damage of the wool muslin fabric by the moths were examined (two replicate).

[11] = test system: common mosquitoes (Culex pipiens pallens); assay: Biological test 11: vapour exposure over treated aluminum plate, mosquitoes; assay type: in vivo; conditions: 0.64 ml of 0.05 (w/v) % acetone solution, no direct contact, 25 °C for 120 minutes, after 24 hours
Procedure: as §1, with “common mosquitoes (Culex pipiens pallens)” for “houseflies (Musca domestica)”, “mosquitoes” for “houseflies”, “mosquitoes.” for “houseflies.”, “mortality” for “percent moribund”

[12] = test system: common mosquitoes (Culex pipiens pallens); assay: Biological test 7: oil solution sprayed in glass chamber, knock-down; assay type: in vivo; conditions: 0.7 ml of 0.1 % oil solution sprayed, 0.34 m^3 chamber, after 15 minutes
Procedure: Ten female common mosquitoes (Culex pipiens pallens) were left in a glass chamber (70 cm × 70 cm × 70 cm : 0.34 m^3). 0.7 ml of 0.1 % oil solution prepared for each of the present compounds according to the formulation example 7 was sprayed with a spray gun at 0.8 atmospheric pressure. After 15 minutes, the rate of knocked-down mosquitoes was examined.

[13] = test system: tobacco cutworm (Spodoptera litura); assay: Biological test 1: artificial bait impregnated with emulsion; conditions: 500 ppm emulsion, 4-instar larvae, after 6 days
[14] = test system: webbing clothes moth (Tineola bisselliella); assay: Biological test 13: volatile agent hung in cup with webbing clothes moth larvae; assay type: in vivo; conditions: volatile agent (100 µg on filter paper), 25 °C for 1 week; for mortality: 10080 min
Procedure: A wool muslin fabric (2 cm × 2 cm in size) was placed on the bottom of a polyethylene cup (bottom diameter : 10 cm, opening part diameter : 12.5 cm, height : 9.5 cm, volume : 950 cm^3 ). Ten middle instar larvae of webbing clothes moth (Tineola bisselliella) were put in the cup and each of the volatile agents prepared according to the formulation example 14 was hung from the cap in the interior of the cup. After standing at 25 °C for 1 week, the cup was opened, and the mortality and the degree of damage of the wool muslin fabric by the moths were examined (two replicate).

rats = conditions: male 7-week old rats, into the stomach in corn oil, after 7 days
Procedure: After subjecting the rats to a twenty-hour fasting, 0.1 ml of the diluted solution per 10g weight was forcibly applied into the stomach of four male 7-week old rats. The rats were given food and water four hours after the application and thereafter regularly fed and watered, and kept in a cage. After 7 days, the mortality was examined for the rats and LD50 was calculated.

Row | SMILES | mortality [1] [%] | degree of damage ([2]; After 1 week) | percent moribund ([2]; After 1 week) [%] | degree of damage ([2]; After 2 weeks) | percent moribund ([2]; After 2 weeks) [%] | degree of damage ([2]; After 3 weeks) | percent moribund ([2]; After 3 weeks) [%] | degree of damage ([2]; After 5 weeks) | percent moribund ([2]; After 5 weeks) [%] | mortality [3] [%] | percent moribund [4] [%] | mortality [5] [%] | mortality of the hatched larvae and eggs [6] [%] | percent moribund [7] [%] | rate of knocked-down mosquitoes [8] [%] | mortality [9] [%] | degree of damage of the wool muslin fabric [10] | mortality [10] [%] | mortality [11] [%] | rate of knocked-down mosquitoes [12] [%] | further results
1 | CCc1ccc(COC(=O)[C@@H]2[C@H](/C=C(\Cl)C(F)(F)F)C2(C)C)o1 (racemic) [present compound (2), 5-ethyl-2-furfuryl (1RS,cis)-3-(Z-2-chloro-3,3,3-trifluoroprop-1-enyl)-2,2-dimethylcyclopropanecarboxylate] | 100 | - | 100 | - | 100 | - | 100 | - | 100 | 100 | 100 | ≥ 90 | 100 | 100 | 100 | ≥ 90 | no damage | 100 | 100 | ≥ 90 | mortality [13]: 100%; degree of damage of the wool muslin fabric [14]: no damage; mortality [14]: 100%
2 | CCCc1ccc(COC(=O)[C@@H]2[C@H](/C=C(\Cl)C(F)(F)F)C2(C)C)o1 (racemic) [present compound (3), 5-propyl-2-furfuryl (1RS,cis)-3-(Z-2-chloro-3,3,3-trifluoroprop-1-enyl)-2,2-dimethylcyclopropanecarboxylate] | 100 | - | 100 | - | 100 | - | 100 | - | 100 | 100 | 100 | ≥ 90 | 100 | 100 | 100 | ≥ 90 | no damage | 100 | 100 | ≥ 90 | mortality [13]: 100%; degree of damage of the wool muslin fabric [14]: no damage; mortality [14]: 100%
3 | C=CCc1ccc(COC(=O)[C@@H]2[C@H](/C=C(\Cl)C(F)(F)F)C2(C)C)o1 (racemic) [present compound (4), 5-allyl-2-furfuryl (1RS,cis)-3-(Z-2-chloro-3,3,3-trifluoroprop-1-enyl)-2,2-dimethylcyclopropanecarboxylate] | 100 | - | 100 | - | 100 | - | 100 | - | 100 | 100 | 100 | ≥ 90 | 100 | 100 | 100 | ≥ 90 | no damage | 100 | 100 | ≥ 90 | mortality [13]: 100%; degree of damage of the wool muslin fabric [14]: no damage; mortality [14]: 100%
4 | CC1(C)C(/C=C(\Cl)C(F)(F)F)C1C(=O)OCc1coc(Cc2ccccc2)c1 (centres unmarked) [A, reference compound] |  | +++ | 0 | +++ | 0 | +++ | 5 | +++ | 5 |  |  |  |  |  |  |  |  |  |  |  | LD50 (rats): less than 50 mg/kg
5 | CC1(C)C(/C=C(\Cl)C(F)(F)F)C1C(=O)OCc1ccc(C(F)F)o1 (centres unmarked) [B, reference compound] |  | +++ | 50 | +++ | 33 | +++ | 53 | +++ | 42 |  |  |  |  |  |  |  |  |  |  |  | 
6 | C#CCc1ccc(COC(=O)C2C(/C=C(\Cl)C(F)(F)F)C2(C)C)o1 (centres unmarked) [C, reference compound] |  | +++ | 7 | +++ | 63 | +++ | 20 | +++ | 37 |  |  |  |  |  |  |  |  |  |  |  | LD50 (rats): less than 100 mg/kg
